Key:
B-RAF V600E = biological target: T1, B-RAF V600E (Homo sapiens, UniProt P15056, V600E); assay: Target protein degradation, assay C: T-Rex 293 cells, HA-BRAF_V600E, 384 well format; type: cell-based; conditions: T-Rex 293 HA-BRAF_V600E cells, 24 hours, Examples 83-269; for DC50: Assay C; for Dmax: T-REx-293, Assay C
T1 construct: expressed in transfected cells; host or cells: T-Rex 293 cells (Invitrogen #R71007)
Outline: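 After 24 h exposure to an 11-point 1:3 series (300 nM–5 pM, 0.5% DMSO), fixed T-Rex 293 cells carrying HA-BRAF V600E (induced with 1 ng/mL doxycycline) were stained anti-HA and imaged. DC50 and Dmax were derived from BRAF intensity relative to control, and cytotoxicity from nuclear counts.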

B-RAF G466V = biological target: T2, B-RAF G466V (Homo sapiens, UniProt P15056, G466V); assay: Target protein degradation, assay D: T-Rex 293 cells, HA-BRAF_G466V, 384 well format; type: cell-based; conditions: T-Rex 293 HA-BRAF_G466V cells, 24 hours, Examples 83-269; for DC50: Assay D; for Dmax: T-REx-293, Assay D
T2 construct: expressed in transfected cells; host or cells: T-Rex 293 cells (Invitrogen #R71007)
T2 sequence (P15056 whole entry G466V): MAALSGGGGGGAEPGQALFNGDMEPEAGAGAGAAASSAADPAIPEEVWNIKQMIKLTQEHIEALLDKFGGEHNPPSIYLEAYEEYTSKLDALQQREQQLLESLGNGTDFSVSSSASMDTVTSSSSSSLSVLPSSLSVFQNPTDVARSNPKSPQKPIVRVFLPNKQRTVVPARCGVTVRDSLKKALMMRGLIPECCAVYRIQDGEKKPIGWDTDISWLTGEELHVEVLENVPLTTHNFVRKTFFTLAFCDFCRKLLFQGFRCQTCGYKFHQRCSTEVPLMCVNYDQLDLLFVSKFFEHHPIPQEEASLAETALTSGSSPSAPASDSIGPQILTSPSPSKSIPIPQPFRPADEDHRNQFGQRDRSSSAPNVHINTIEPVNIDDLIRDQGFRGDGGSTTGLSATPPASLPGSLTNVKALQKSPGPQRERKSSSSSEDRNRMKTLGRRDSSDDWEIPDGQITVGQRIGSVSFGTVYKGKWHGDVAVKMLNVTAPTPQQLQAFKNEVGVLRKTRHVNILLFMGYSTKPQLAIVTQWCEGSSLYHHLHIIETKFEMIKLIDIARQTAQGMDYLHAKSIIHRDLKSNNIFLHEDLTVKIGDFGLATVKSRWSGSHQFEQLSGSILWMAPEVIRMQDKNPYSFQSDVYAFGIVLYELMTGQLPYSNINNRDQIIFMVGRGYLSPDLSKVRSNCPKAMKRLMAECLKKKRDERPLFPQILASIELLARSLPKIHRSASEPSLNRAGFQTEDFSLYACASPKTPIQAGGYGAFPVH
Outline: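 Degradation measured by high-content imaging of anti-HA immunofluorescence in fixed T-Rex 293 cells carrying inducible HA-BRAF G466V (1 ng/mL doxycycline), after 24 h PROTAC exposure at 37 °C over 300 nM–5 pM (1:3, 11 points, 0.5% DMSO). Outputs DC50 and Dmax as % of control; nuclei counts against DMSO wells gauge toxicity.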

T1 sequence (P15056 whole entry V600E): as the sequence (P15056 whole entry G466V) above, with V466G, V600E counted along it

| SMILES | DC50 (B-RAF V600E) [nM] | Dmax (B-RAF V600E) [%] | DC50 (B-RAF G466V) [nM] | Dmax (B-RAF G466V) [%] |
| --- | --- | --- | --- | --- |
| CCN(C)S(=O)(=O)Nc1ccc(F)c(Oc2ccc3ncn(-c4ccc(N5CCN(CC6CN(c7ccc8c(c7)CN(C7CCC(=O)NC7=O)C8=O)C6)CC5)cc4)c(=O)c3c2)c1C#N (stereo not shown) [Example 181, 2-[(3-{4-[4-({1-[2-(2,6-dioxopiperidin-3-yl)-1-oxo-2,3-dihydro-1H-isoindol-5-yl]azetidin-3-yl}methyl)piperazin-1-yl]phenyl}-4-oxo-3,4-dihydroquinazolin-6-yl)oxy]-6-{[ethyl(methyl)sulfamoyl]amino}-3-fluorobenzonitrile] | 50 to 500 | 35 to 70 | 1 to 10 | ≤ 35 |
| N#Cc1c(NS(=O)(=O)N2CC[C@@H](F)C2)ccc(F)c1Oc1ccc2ncn(-c3ccc(N4CCC(CN5CC6(CCC(c7ccc8c(c7)CN(C7CCC(=O)NC7=O)C8=O)CC6)C5)C4)cc3)c(=O)c2c1 (single isomer, unassigned) [Example 261, (3R)-N-(2-cyano-3-{[3-(4-{3-[(7-{2-[(3R*)-2,6-dioxopiperidin-3-yl]-1-oxo-2,3-dihydro-1H-isoindol-5-yl}-2-azaspiro[3.5]nonan-2-yl)methyl]pyrrolidin-1-yl}phenyl)-4-oxo-3,4-dihydroquinazolin-6-yl]oxy}-4-fluorophenyl)-3-fluoropyrrolidine-1-sulfonamide] | 50 to 500 |  | 1 to 10 |  |
| Cc1c(N2CCC(CN3CCN(c4ccc(-n5cnc6ccc(Oc7c(F)ccc(NS(=O)(=O)N8CC[C@@H](F)C8)c7C#N)cc6c5=O)cc4)CC3)CC2)ccc2c1CN(C1CCC(=O)NC1=O)C2=O (single isomer, unassigned) [Example 111, (3R)-N-(2-cyano-3-{[3-(4-{4-[(1-{2-[(3R*)-2,6-dioxopiperidin-3-yl]-4-methyl-1-oxo-2,3-dihydro-1H-isoindol-5-yl}piperidin-4-yl)methyl]piperazin-1-yl}phenyl)-4-oxo-3,4-dihydroquinazolin-6-yl]oxy}-4-fluorophenyl)-3-fluoropyrrolidine-1-sulfonamide] | 50 to 500 | 35 to 70 | 1 to 10 | 35 to 70 |
| CC(=O)N(CC1CCN(c2ccc(-n3cnc4ccc(Oc5c(F)ccc(NS(=O)(=O)N6CC[C@@H](F)C6)c5C#N)cc4c3=O)cc2)CC1)[C@H]1C[C@@H](Oc2ccc3c(c2)CN([C@H]2CCC(=O)NC2=O)C3=O)C1 [Example 268, N-{[1-(4-{6-[2-cyano-6-fluoro-3-({[(3R)-3-fluoropyrrolidin-1-yl]sulfonyl}amino)phenoxy]-4-oxo-3,4-dihydroquinazolin-3-yl}phenyl)piperidin-4-yl]methyl}-N-[(1r,3r)-3-({2-[(3S)-2,6-dioxopiperidin-3-yl]-1-oxo-2,3-dihydro-1H-isoindol-5-yl}oxy)cyclobutyl]acetamide] | > 500 |  | 10 to 30 | ≤ 35 |
| N#Cc1c(NS(=O)(=O)N2CC[C@@H](F)C2)ccc(F)c1Oc1ccc2ncn(-c3ccc(N4CC5(CCN(CC6CCN(c7ccc8c(c7)CN([C@H]7CCC(=O)NC7=O)C8=O)CC6)CC5)C4)cc3)c(=O)c2c1 [Example 192, (3R)-N-(2-cyano-3-{[3-(4-{7-[(1-{2-[(3S)-2,6-dioxopiperidin-3-yl]-1-oxo-2,3-dihydro-1H-isoindol-5-yl}piperidin-4-yl)methyl]-2,7-diazaspiro[3.5]nonan-2-yl}phenyl)-4-oxo-3,4-dihydroquinazolin-6-yl]oxy}-4-fluorophenyl)-3-fluoropyrrolidine-1-sulfonamide] | 50 to 500 | 35 to 70 | 1 to 10 | 35 to 70 |
| N#Cc1c(NS(=O)(=O)N2CC[C@@H](F)C2)ccc(F)c1Oc1ccc2ncn(-c3ccc(C4CCCN(CC5CCN(c6ccc7c(c6)CN([C@H]6CCC(=O)NC6=O)C7=O)CC5)C4)cc3)c(=O)c2c1 (stereo partly drawn) [Example 207, (3R)-N-(2-cyano-3-{[3-(4-{1-[(1-{2-[(3S)-2,6-dioxopiperidin-3-yl]-1-oxo-2,3-dihydro-1H-isoindol-5-yl}piperidin-4-yl)methyl]piperidin-3-yl}phenyl)-4-oxo-3,4-dihydroquinazolin-6-yl]oxy}-4-fluorophenyl)-3-fluoropyrrolidine-1-sulfonamide] | 50 to 500 | ≥ 70 | 1 to 10 | 35 to 70 |
| Cn1c(=O)n(C2CCC(=O)NC2=O)c2cccc(N3CCN(CCN4CCN(c5ccc(-n6cnc7ccc(Oc8c(F)ccc(NS(=O)(=O)N9CC[C@@H](F)C9)c8C#N)cc7c6=O)cc5)CC4)CC3)c21 (stereo partly drawn) [Example 245, (3R)-N-{2-cyano-3-[(3-{4-[4-(2-{4-[1-(2,6-dioxopiperidin-3-yl)-3-methyl-2-oxo-2,3-dihydro-1H-1,3-benzodiazol-4-yl]piperazin-1-yl}ethyl)piperazin-1-yl]phenyl}-4-oxo-3,4-dihydroquinazolin-6-yl)oxy]-4-fluorophenyl}-3-fluoropyrrolidine-1-sulfonamide] | 50 to 500 | ≥ 70 | 1 to 10 | 35 to 70 |
| N#Cc1c(NS(=O)(=O)N2CC[C@@H](F)C2)ccc(F)c1Oc1ccc2ncn(-c3ccc(N4CCC(CN5CC(c6ccc7c(c6)CN(C6CCC(=O)NC6=O)C7=O)C5)CC4)cc3)c(=O)c2c1 (stereo partly drawn) [Example 101, (3R)-N-{2-cyano-3-[(3-{4-[4-({3-[2-(2,6-dioxopiperidin-3-yl)-1-oxo-2,3-dihydro-1H-isoindol-5-yl]azetidin-1-yl}methyl)piperidin-1-yl]phenyl}-4-oxo-3,4-dihydroquinazolin-6-yl)oxy]-4-fluorophenyl}-3-fluoropyrrolidine-1-sulfonamide] | 50 to 500 | 35 to 70 | 1 to 10 | 35 to 70 |
| N#Cc1c(NS(=O)(=O)N2CC[C@@H](F)C2)ccc(F)c1Oc1ccc2ncn(-c3ccc(N4CCC(CN5CCC(c6ccc([C@@H]7CCC(=O)NC7=O)cc6F)CC5)CC4)cc3)c(=O)c2c1 [Example 188, (3R)-N-(2-cyano-3-{[3-(4-{4-[(4-{4-[(3S)-2,6-dioxopiperidin-3-yl]-2-fluorophenyl}piperidin-1-yl)methyl]piperidin-1-yl}phenyl)-4-oxo-3,4-dihydroquinazolin-6-yl]oxy}-4-fluorophenyl)-3-fluoropyrrolidine-1-sulfonamide] | 50 to 500 | 35 to 70 | 1 to 10 | 35 to 70 |
| N#Cc1c(NS(=O)(=O)N2CC[C@@H](F)C2)ccc(F)c1Oc1ccc2ncn(-c3cnc(C4(N5CCN(CC6CCN(c7ccc8c(c7)CN(C7CCC(=O)NC7=O)C8=O)CC6)CC5)CC4)nc3)c(=O)c2c1 (stereo partly drawn) [Example 100, (3R)-N-(2-cyano-3-{[3-(2-{1-[4-({1-[2-(2,6-dioxopiperidin-3-yl)-1-oxo-2,3-dihydro-1H-isoindol-5-yl]piperidin-4-yl}methyl)piperazin-1-yl]cyclopropyl}pyrimidin-5-yl)-4-oxo-3,4-dihydroquinazolin-6-yl]oxy}-4-fluorophenyl)-3-fluoropyrrolidine-1-sulfonamide] | 50 to 500 | 35 to 70 | 1 to 10 | 35 to 70 |

From patent US11957759B1, “Rapidly accelerated fibrosarcoma (RAF) degrading compounds and associated methods of use” (Arvinas Operations, Inc., priority 2022, dated 2024)
